The target in series [1] is T1, human adenosine A1 receptor (Homo sapiens, UniProt P30542).
T1 construct: expressed in transfected cells; host or cells: CHO cells, semliki forest virus expression system; membrane preparation
T1 sequence (P30542 1-326): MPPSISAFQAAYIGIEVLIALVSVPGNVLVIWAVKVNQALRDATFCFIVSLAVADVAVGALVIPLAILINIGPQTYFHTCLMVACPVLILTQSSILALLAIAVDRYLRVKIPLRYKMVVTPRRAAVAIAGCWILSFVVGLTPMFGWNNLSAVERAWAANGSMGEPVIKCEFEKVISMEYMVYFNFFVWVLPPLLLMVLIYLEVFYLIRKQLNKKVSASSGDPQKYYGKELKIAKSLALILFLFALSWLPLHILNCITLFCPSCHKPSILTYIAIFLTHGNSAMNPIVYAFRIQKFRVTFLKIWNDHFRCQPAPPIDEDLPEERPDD
Briefly: Human adenosine A1 receptor [3H]-DPCPX binding assay (SPA). The following applies: recombinant receptor in CHO cell membranes; [3H]-DPCPX 0.6 nM; Ki by Cheng-Prussoff; read-out: hA1 (pKi) (converted). The protocol:
Human Adenosine A1 receptor
(§1) The human adenosine A1 receptor was recombinantly expressed in Chinese hamster ovary (CHO) cells using the semliki forest virus expression system. Cells were harvested, washed twice by centrifugation, homogenized and again washed by centrifugation. The final washed membrane pellet was suspended in a Tris (50 mM) buffer containing 120 mM NaCl, 5 mM KCl, 2 mM CaCl2 and 10 mM MgCl2 (pH 7.4) (buffer A). The [^3H]-DPCPX (([propyl-^3H]8-cyclopentyl-1,3-dipropyxanthine); 0.6 nM) binding assay was carried out in 96-well plates in the presence of 2.5 μg of membrane protein, 0.5 mg of Ysi-poly-1-lysine SPA beads and 0.1 U adenosine deaminase in a final volume of 200 μl of buffer A. Non-specific binding was defined using xanthine amine congener (XAC; 2 μM). Compounds were tested at 10 concentrations from 10 μM–0.3 nM. All assays were conducted in duplicate and repeated at least two times. Assay plates were incubated for 1 hour at room temperature before centrifugation and then bound ligand determined using a Packard Topcount scintillation counter. IC50 values were calculated using a non-linear curve fitting program and Ki values calculated using the Cheng-Prussoff equation.

Series [2] addresses T2, human adenosine A2A receptor (Homo sapiens, UniProt P29274).
T2 construct: expressed in transfected cells; host or cells: CHO cells, semliki forest virus expression system; membrane preparation
Nature of the series: Human adenosine A2A receptor [3H]-SCH-58261 binding assay (SPA). The settings on record: recombinant receptor in CHO cell membranes; [3H]-SCH-58261 1 nM; Ki by Cheng-Prussoff; read-out: hA2 (pKi) (converted). The protocol: Human Adenosine A2A Receptor
as §1, with “A2A” for “A1”, “[^3H]-SCH-58261 (Dionisotti et al., 1997, Br J Pharmacol 121, 353; 1” for “[^3H]-DPCPX (([propyl-^3H]8-cyclopentyl-1,3-dipropyxanthine); 0.6”, “μM-0.3” for “μM–0.3”, “duplic” for “duplicate”, “[…]” for “for 1”

Structures can show the parent of a compound that is named as a salt.

T2 sequence (P29274 whole entry): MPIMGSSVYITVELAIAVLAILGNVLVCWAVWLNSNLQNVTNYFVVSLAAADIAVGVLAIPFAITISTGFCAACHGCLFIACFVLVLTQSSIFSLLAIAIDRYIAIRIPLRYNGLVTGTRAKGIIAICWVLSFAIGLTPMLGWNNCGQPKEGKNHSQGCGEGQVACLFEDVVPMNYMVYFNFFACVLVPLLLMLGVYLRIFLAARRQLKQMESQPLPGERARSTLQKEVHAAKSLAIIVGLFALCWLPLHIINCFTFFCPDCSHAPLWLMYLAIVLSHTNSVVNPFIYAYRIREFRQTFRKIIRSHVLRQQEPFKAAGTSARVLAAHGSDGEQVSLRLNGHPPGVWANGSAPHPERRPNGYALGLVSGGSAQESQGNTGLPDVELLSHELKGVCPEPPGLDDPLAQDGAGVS

The compound `COc1ccc(N2CCOCC2)c2sc(-c3nc(-c4cccs4)c[nH]3)nc12` (as salt: ammonium) [Example 18, 4-Methoxy-7-morpholin-4-yl-2-(4-thiophen-2-yl-1H-imidazol-2-yl)-benzothiazole] had a melting point of 165 °C. Compound `COc1ccc(-c2ccccc2)c2sc(-c3ncc[nH]3)nc12` [Example 4, 2-(1H-Imidazol-2-yl)-4-methoxy-7-phenyl-benzothiazole] returned a melting point of 205 to 206 °C. Besides, in series [1], the Ki was 200 nM. Besides, the Ki in series [2] is 5.01 nM.

`COc1ccc(N2CCOCC2)c2sc(-c3nc(-c4ccsc4)c[nH]3)nc12` (as salt: ammonium) [Example 19, 4-Methoxy-7-morpholin-4-yl-2-(4-thiophen-3-yl-1H-imidazol-2-yl)-benzothiazole] displayed a melting point of 170 °C. Take `COc1ccc(N2CCOCC2)c2sc(-c3nc4c([nH]3)CCN(C(C)=O)CC4)nc12` [Example 27, 1-[2-(4-Methoxy-7-morpholin-4-yl-benzothiazol-2-yl)-4,5,7,8-tetrahydro-1H-imidazo[4,5-d]azepin-6-yl]-ethanone]: the melting point fell in the range of 195 to 197 °C. `COc1ccc(N2CCOCC2)c2sc(-c3nc4c([nH]3)COCC4)nc12` [Example 23, 2-(4-Methoxy-7-morpholin-4-yl-benzothiazol-2-yl)-3,4,6,7-tetrahydro-pyrano[3,4-d]imidazole] yielded a melting point of 203 to 204 °C. The Ki in series [1] is 398 nM. Besides, in series [2], the Ki is 1.26 nM. The matching figures for `COc1ccc(N2CCOCC2)c2sc(-c3nc4c([nH]3)CCN(C(=O)c3ccccc3C)CC4)nc12` [Example 28, [2-(4-Methoxy-7-morpholin-4-yl-benzothiazol-2-yl)-4,5,7,8-tetrahydro-1H-imidazo[4,5-d]azepin-6-yl]-o-tolyl-methanone]: 194 to 196 °C, 1580 nM and 1.26 nM.

For the compound `COc1ccc(N2CCOCC2)c2sc(-c3nc4ccc(N5CCOCC5)nc4[nH]3)nc12` [Example 9, 2-(4-Methoxy-7-morpholin-4-yl-benzothiazol-2-yl)-5-morpholin-4-yl-3H-imidazo[4,5-b]pyridine], in series [2], the Ki was 2.51 nM. Regarding `COc1ccc(N2CCOCC2)c2sc(-c3nc4c([nH]3)CCN(C(=O)C3CC3)CC4)nc12` [Example 30, Cyclopropyl-[2-(4-methoxy-7-morpholin-4-yl-benzothiazol-2-yl)-4,5,7,8-tetrahydro-1H-imidazo[4,5-d]azepin-6-yl]-methanone], the values for the Ki in series [1] and in series [2] were 1260 nM and 1.58 nM, respectively.

For the compound `COc1ccc(N2CCOCC2)c2sc(-c3ncc(-c4csc5ccccc45)[nH]3)nc12` [Example 17, 2-(5-Benzo[b]thiophen-3-yl-1H-imidazol-2-yl)-4-methoxy-7-morpholin-4-yl-benzothiazole], the melting point lay within 161 to 162 °C. Compound `COc1ccc(N2CCOCC2)c2sc(-c3ncc(-c4sc5ccccc5c4C)[nH]3)nc12` [Example 20, 4-Methoxy-2-[5-(3-methyl-benzo[b]thiophen-2-yl)-1H-imidazol-2-yl]-7-morpholin-4-yl-benzothiazole] gave a melting point of 213 to 215 °C. For the same compound, the Ki in series [2] is 50.1 nM. The compound `COc1ccc(N2CCOCC2)c2sc(-c3nc4c([nH]3)CCNC4)nc12.Cl` came in with a melting point of 268 to 271 °C. On the same count and under the same terms, the same measure for `COc1ccc(N2CCOCC2)c2sc(-c3nc(-c4ccc5c(c4)OCCO5)c[nH]3)nc12` [Example 16, 2-[4-(2,3-Dihydro-benzo[1,4]dioxin-6-yl)-1H-imidazol-2-yl]-4-methoxy-7-morpholin-4-yl-benzothiazole]: 235 to 237 °C.

As for `COc1ccc(N2CCOCC2)c2sc(-c3nc4c([nH]3)CCCC4)nc12` [Example 22, 4-Methoxy-7-morpholin-4-yl-2-(4,5,6,7-tetrahydro-1H-benzoimidazol-2-yl)-benzothiazole], the Ki was 794 nM in series [1] and 2.51 nM in series [2].

Turning to `COc1ccc(N2CCOCC2)c2sc(-c3ncc[nH]3)nc12` [Example 1, 2-(1H-Imidazol-2-yl)-4-methoxy-7-morpholin-4-yl-benzothiazole], the results for the Ki in series [1] and in series [2] were 1000 nM and 12.6 nM, respectively.

As for `COc1ccc(N2CCOCC2)c2sc(-c3nc(Cc4cccs4)c[nH]3)nc12` (as salt: ammonium) [Example 21, 4-Methoxy-7-morpholin-4-yl-2-(4-thiophen-2-ylmethyl-1H-imidazol-2-yl)-benzothiazole], the melting point was found to be 165 °C. With `COc1ccc(N2CCOCC2)c2sc(-c3nc4ccc(Cl)nc4[nH]3)nc12` [Example 6, 5-Chloro-2-(4-methoxy-7-morpholin-4-yl-benzothiazol-2-yl)-3H-imidazo[4,5-b]pyridine], the Ki in series [2] is 3.16 nM. With `COc1ccc(N2CCOCC2)c2sc(-c3nc4ccc(N(C)CC5CCOCC5)nc4[nH]3)nc12` [Example 14, [2-(4-Methoxy-7-morpholin-4-yl-benzothiazol-2-yl)-3H-imidazo[4,5-b]pyridin-5-yl]-methyl-(tetrahydro-pyran-4-ylmethyl)-amine], the Ki in series [1] is 2510 nM; in series [2] it was 3.16 nM. On to `COc1ccc(N2CCOCC2)c2sc(-c3nc4c([nH]3)CCCC4)nc12` (as salt: ammonium) [Example 22, 4-Methoxy-7-morpholin-4-yl-2-(4,5,6,7-tetrahydro-1H-benzoimidazol-2-yl)-benzothiazole], for which the melting point came to 165 °C. In the case of `COc1ccc(N2CCOCC2)c2sc(-c3nc4c([nH]3)CCN(CC(N)=O)CC4)nc12` [Example 46, 2-[2-(4-Methoxy-7-morpholin-4-yl-benzothiazol-2-yl)-4,5,7,8-tetrahydro-1H-imidazo[4,5-d]azepin-6-yl]-acetamide], the melting point is 299 to 302 °C. `COc1ccc(N2CCOCC2)c2sc(-c3nc(-c4ccccc4)c[nH]3)nc12` [Example 15, 4-Methoxy-7-morpholin-4-yl-2-(4-phenyl-1H-imidazol-2-yl)-benzothiazole]: the melting point lay within 226 to 233 °C.

Regarding `COc1ccc(C2CCOCC2)c2sc(-c3ncc[nH]3)nc12` [Example 45, 2-(1H-Imidazol-2-yl)-4-methoxy-7-(tetrahydro-pyran-4-yl)-benzothiazole], the melting point was in the range of 220 to 224 °C.

In turn, `COc1ccc(N2CCOCC2)c2sc(-c3nc4c([nH]3)CCN(C(C)=O)C4)nc12` [Example 39, 1-[2-(4-Methoxy-7-morpholin-4-yl-benzothiazol-2-yl)-1,4,6,7-tetrahydro-imidazo[4,5-c]pyridin-5-yl]-ethanone] showed a melting point of 155 to 157 °C. On the same count and under the same terms, then `COc1ccc(N2CCOCC2)c2sc(-c3nc4c([nH]3)CCN(C(=O)OC(C)(C)C)CC4)nc12` [Example 24, 2-(4-Methoxy-7-morpholin-4-yl-benzothiazol-2-yl)-4,5,7,8-tetrahydro-1H-imidazo[4,5-d]azepine-6-carboxylic acid tert-butyl ester], with 142 to 144 °C.

`COc1ccc(N2CCOCC2)c2sc(-c3nc4ccccc4n3C)nc12` [Example 3, 4-Methoxy-2-(1-methyl-1H-benzoimidazol-2-yl)-7-morpholin-4-yl-benzothiazole] gave a melting point of 283 to 285 °C. Further, in series [2], the Ki is 100 nM. With `COc1ccc(N2CCOCC2)c2sc(-c3nc4c([nH]3)CCNCC4)nc12.Cl`, the melting point was in the range of 267 to 269 °C. In the case of `COCn1c(-c2nc3c(OC)ccc(N4CCOCC4)c3s2)nc2ccc(Cl)nc21` [Example 7, 5-Chloro-3-methoxymethyl-2-(4-methoxy-7-morpholin-4-yl-benzothiazol-2-yl)-3H-imidazo[4,5-b]pyridine], the melting point fell in the range of 167 to 170 °C.

Broadly, the melting point is the temperature of the solid-liquid transition.

Source of the values: patent publication US7122545B2, “Imidazo-benzothiazoles” (Hoffmann-La Roche Inc., priority 2003, dated 2006).
